Earlier results, collected in patent US20060251637A1, “Oil-in-water type emulsion containing coenzyme q10 and process for producting the same” (priority 2003, published 2006).

Conditions: at 20° C.; decreases with decreasing temperature

Lipid solubility of coenzyme Q10: approximately 1%
SMILES: COC1=C(OC)C(=O)C(C/C=C(\C)CC/C=C(\C)CC/C=C(\C)CC/C=C(\C)CC/C=C(\C)CC/C=C(\C)CC/C=C(\C)CC/C=C(\C)CC/C=C(\C)CCC=C(C)C)=C(C)C1=O [coenzyme Q10]
